Numbered stars: 1 amine (or outer) side, 2 acyl side, 3 side chain; on linkers, the order of the positions; unused ones are H or OH. Bridge positions count the residues as written; N and C are the ends. Square brackets hold non-standard residues; d marks the D form. Peptide text beside a SMILES is read from it. * marks the point of attachment. C20 diacid = O=C(O)CCCCCCCCCCCCCCCCCCC(=O)*; γGlu = O=C(O)[C@H](CCC(=O)[*:2])N[*:1]; Hyp = O=C(O)[C@@H]1C[C@@H](O)CN1; NMeI = CC[C@H](C)[C@H](NC)C(=O)O; Aad = N[C@@H](CCCC(=O)O)C(=O)O; Sar = CNCC(=O)O
How the values were obtained:
[1] = biological target: T1, recombinant human calcitonin receptor (hCT-R) (Homo sapiens, UniProt P30988); assay: hCT-R cAMP assay (AlphaScreen) in 1321N1 cells; assay type: cell-based; conditions: cAMP formation, 45 min stimulation
T1 construct: host or cells: human astrocytoma cell line 1321N1
T1 sequence (P30988 25-474): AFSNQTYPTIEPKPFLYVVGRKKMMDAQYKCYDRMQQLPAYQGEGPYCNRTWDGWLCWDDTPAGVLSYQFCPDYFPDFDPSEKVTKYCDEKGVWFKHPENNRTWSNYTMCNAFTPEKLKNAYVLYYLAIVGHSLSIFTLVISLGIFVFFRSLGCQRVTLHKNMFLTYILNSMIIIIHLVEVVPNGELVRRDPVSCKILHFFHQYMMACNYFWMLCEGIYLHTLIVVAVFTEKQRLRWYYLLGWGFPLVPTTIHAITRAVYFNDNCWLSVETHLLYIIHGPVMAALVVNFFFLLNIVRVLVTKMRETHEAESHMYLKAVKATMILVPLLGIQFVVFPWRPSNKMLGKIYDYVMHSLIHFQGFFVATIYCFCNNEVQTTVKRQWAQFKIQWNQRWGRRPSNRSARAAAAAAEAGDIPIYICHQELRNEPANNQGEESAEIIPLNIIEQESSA
In short: (§1)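 1321N1 astrocytoma cells expressing recombinant human calcitonin receptor alone or with RAMP3 (AMY3) stimulated 45 min at room temperature with peptide in IBMX-containing buffer. cAMP quantified by AlphaScreen after 1 h bead incubation; EC50 fitted from at least 7 concentrations.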

[2] = Effect on acute food intake and body weight in normal Sprague Dawley rats; assay type: in vivo, Sprague Dawley (SD) rats; conditions: vehicle-corrected
Excerpt: Sprague Dawley (SD) rats were obtained from Janvier Labs, France. The animals arrived at least 14 days before the study start to allow acclimatization to experimental conditions. From arrival and throughout the study, the rats were housed in groups of 2 to 4 (n=2-4) in a light-, temperature- and humidity-controlled room. Animals had access ad libitum to food (KLIBA 3430, Provimi Kliba AG, Switzerland) and water (domestic quality tap water) during the entire study. Per group 6-8 rats were included. A vehicle group and positive control group were included in each set of tests. […] Dosing volume was 2 ml/kg. Food intake was recorded online using an automated food intake system (HM02, MBRose, Denmark) for 4 days or manually at 0 h for a predose and then 24, 48, 72 and 96 h post dosing. Body weight was measured daily.
Statistical analyses were performed using GraphPad™ Prism version 7. The measured parameters were compared using two-way ANOVA followed by Dunnett's multiple comparison tests. Differences were considered statistically significant at p<0.05.

[3] = Assessment of chemical stability in 40 mM buffers at 40° C. (RP-HPLC); assay type: physicochemical; conditions: 1 mg/mL; for % degradation after 72 h at 40° C. pH4 acetate: acetate buffer pH 4, 72 h; for % degradation after 72 h at 40° C. pH6 phosphate: phosphate buffer pH 6, 72 h; for % degradation after 72 h at 40° C. pH7 phosphate: phosphate buffer pH 7, 72 h; for % degradation after 14 days at 40° C. pH6 phosphate: phosphate buffer pH 6, 14 days
In short: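 Peptides at 1 mg/mL in 40 mM acetate pH 4 or phosphate pH 6 and 7 were held at 40° C for 3 and 14 days. Main-peak area-% by C8 RP-HPLC, UV 220 nm; % degradation = change in main-peak area-% versus t=0.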

[4] = Assessment of physical stability: fibril formation by Thioflavin T fluorescence; assay type: physicochemical; design: key: FND = fibrillation not detected; FD = fibrillation detected; conditions: 1 mg/mL peptide; for Fibrillation (in buffer) pH4 acetate: 50 mM acetate buffer pH 4.0, 96 hours at 40° C.; for Fibrillation (in buffer) pH7 histidine: 50 mM histidine buffer pH 7.0, 96 hours at 40° C.; for Fibrillation (in buffer) pH7 phosphate: 50 mM phosphate buffer pH 7.0, 96 hours at 40° C.
In short: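 Test peptide at 1 mg/mL with 40 μM ThT in 50 mM phosphate pH 7.0, 50 mM histidine pH 7.0, or 50 mM acetate pH 4.0, in triplicate. Fluorescence read every 10 min after 300 s agitation for 96 hours at 40° C; significant intensity rise scored as fibrillation detected (FD).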

[5] = biological target: T2, recombinant human amylin 3 receptor (hAMYR3) (Homo sapiens, UniProt O60896+P30988); assay: hAMYR3 cAMP assay (AlphaScreen) in 1321N1 cells; assay type: cell-based; conditions: cAMP formation, 45 min stimulation
T2 construct: host or cells: human astrocytoma cell line 1321N1
T2 sequence (P30988 25-474): T1 sequence (P30988 25-474)
T2 sequence (O60896 24-148 partner): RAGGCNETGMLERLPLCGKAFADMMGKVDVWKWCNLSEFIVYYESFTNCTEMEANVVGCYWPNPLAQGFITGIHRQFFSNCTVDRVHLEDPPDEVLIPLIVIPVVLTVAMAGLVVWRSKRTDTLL
In short: as §1

EC50 [1] [nM] | % degradation after 72 h at 40° C. pH4 acetate [3] [%] | % degradation after 72 h at 40° C. pH6 phosphate [3] [%] | % degradation after 72 h at 40° C. pH7 phosphate [3] [%] | Fibrillation (in buffer) pH4 acetate [4] | Fibrillation (in buffer) pH7 histidine [4] | Fibrillation (in buffer) pH7 phosphate [4] | EC50 [5] [nM] | % degradation after 14 days at 40° C. pH6 phosphate [3] [%] | % degradation after 14 days at 40° C. pH7 phosphate ([3]; phosphate buffer pH 7, 14 days) [%] | Structure (SMILES) | Body weight reduction in % at 48 h ([2]; Dose: 30 nmol/kg sc) [%] | Food intake reduction in % at 48 h ([2]; Dose: 30 nmol/kg sc) [%] | Body weight reduction in % at 48 h ([2]; at dose of 10 nmol/kg sc) [%] | Food intake reduction in % at 48 h ([2]; at dose of 10 nmol/kg sc) [%]
0.056 | <1 | <1 | <1 | FND | FD | FD | 0.017 | – | – | CC[C@H](C)[C@@H](C(=O)N1CCC[C@H]1C(=O)N[C@@H](CO)C(=O)N[C@@H](CO)C(=O)N[C@H](C(=O)N[C@@H](CCC(=O)O)C(=O)N[C@H](C(=O)NCC(=O)N[C@@H](CO)C(=O)N[C@@H](CC(N)=O)C(=O)N[C@H](C(=O)N1C[C@H](O)C[C@H]1C(N)=O)[C@@H](C)O)C(C)C)[C@@H](C)O)N(C)C(=O)[C@H](C)NC(=O)CN(C)C(=O)[C@H](Cc1ccccc1)NC(=O)[C@H](CO)NC(=O)[C@H](CO)NC(=O)[C@H](CCCNC(=N)N)NC(=O)[C@H](CCC(N)=O)NC(=O)[C@H](CC(C)C)NC(=O)[C@H](Cc1ccccc1)NC(=O)[C@H](Cc1c[nH]cn1)NC(=O)[C@H](C)NC(=O)[C@H](CC(C)C)NC(=O)[C@H](CCCNC(=N)N)NC(=O)[C@H](CCC(N)=O)NC(=O)[C@@H](NC(=O)[C@H](C)NC(=O)[C@@H]1CCCCNC(=O)C[C@H](NC(=O)[C@H](CCCNC(=N)N)NC(=O)CC[C@H](NC(=O)CCCCCCCCCCCCCCCCCCC(=O)O)C(=O)O)C(=O)NCC(=O)N[C@@H]([C@@H](C)O)C(=O)N[C@@H](C)C(=O)N[C@@H]([C@@H](C)O)C(=O)N1)[C@@H](C)O [Compound 15, [19CD]-isoGlu-RD()GTATK()ATQRLAHFLQRSSF-Gly(Me)-A-Ile(Me)-PSSTEVGSNT-Hyp-NH2] ({C20 diacid-γGlu}-RDGTATKATQRLAHFLQRSSF[Sar]A[NMeI]PSSTEVGSNT[Hyp]-NH2; lactam 2-7) | 7.7 | 71 | – | –
0.043 | – | – | – | – | – | – | 0.035 | <1 | – | CC[C@H](C)[C@@H](C(=O)N[C@@H](CC(C)C)C(=O)N[C@@H](CO)C(=O)N[C@@H](CO)C(=O)N[C@H](C(=O)N[C@@H](CCC(=O)O)C(=O)N[C@H](C(=O)NCC(=O)N[C@@H](CO)C(=O)N[C@@H](CC(N)=O)C(=O)N[C@H](C(=O)N1C[C@H](O)C[C@H]1C(N)=O)[C@@H](C)O)C(C)C)[C@@H](C)O)N(C)C(=O)[C@H](C)NC(=O)CN(C)C(=O)[C@H](Cc1ccccc1)NC(=O)[C@H](CO)NC(=O)[C@H](CO)NC(=O)[C@H](CCCNC(=N)N)NC(=O)[C@H](CCC(N)=O)NC(=O)[C@H](CC(C)C)NC(=O)[C@H](Cc1ccccc1)NC(=O)[C@H](Cc1c[nH]cn1)NC(=O)[C@H](C)NC(=O)[C@H](CC(C)C)NC(=O)[C@H](CCCNC(=N)N)NC(=O)[C@H](CCC(N)=O)NC(=O)[C@@H](NC(=O)[C@H](C)NC(=O)[C@@H]1CCCCNC(=O)C[C@H](NC(=O)[C@H](CCCNC(=N)N)NC(=O)CC[C@H](NC(=O)CCCCCCCCCCCCCCCCCCC(=O)O)C(=O)O)C(=O)NCC(=O)N[C@@H]([C@@H](C)O)C(=O)N[C@@H](C)C(=O)N[C@@H]([C@@H](C)O)C(=O)N1)[C@@H](C)O [Compound 16, [19CD]-isoGlu-RD()GTATK()ATQRLAHFLQRSSF-Gly(Me)-A-Ile(Me)-LSSTEVGSNT-Hyp-NH2] ({C20 diacid-γGlu}-RDGTATKATQRLAHFLQRSSF[Sar]A[NMeI]LSSTEVGSNT[Hyp]-NH2; lactam 2-7) | 7.4 | 66 | – | –
0.232 | – | – | – | FD | FND | FND | 0.122 | – | – | CC[C@H](C)[C@@H](C(=O)N1CCC[C@H]1C(=O)N[C@@H](CO)C(=O)N[C@@H](CO)C(=O)N[C@H](C(=O)N[C@@H](CCC(=O)O)C(=O)N[C@H](C(=O)NCC(=O)N[C@@H](CO)C(=O)N[C@@H](CC(N)=O)C(=O)N[C@H](C(=O)N1C[C@H](O)C[C@H]1C(N)=O)[C@@H](C)O)C(C)C)[C@@H](C)O)N(C)C(=O)[C@H](C)NC(=O)CN(C)C(=O)[C@H](Cc1ccccc1)NC(=O)[C@H](CO)NC(=O)[C@H](CO)NC(=O)[C@H](CCCNC(=N)N)NC(=O)[C@H](CCC(N)=O)NC(=O)[C@H](CC(C)C)NC(=O)[C@H](Cc1ccccc1)NC(=O)[C@H](CCCC(=O)O)NC(=O)[C@H](C)NC(=O)[C@H](CC(C)C)NC(=O)[C@H](CCCNC(=N)N)NC(=O)[C@H](CCC(=O)O)NC(=O)[C@@H](NC(=O)[C@H](C)NC(=O)[C@@H]1CCCCNC(=O)C[C@H](NC(=O)[C@H](CCC(=O)O)NC(=O)CC[C@H](NC(=O)CCCCCCCCCCCCCCCCCCC(=O)O)C(=O)O)C(=O)NCC(=O)N[C@@H]([C@@H](C)O)C(=O)N[C@@H](C)C(=O)N[C@@H]([C@@H](C)O)C(=O)N1)[C@@H](C)O [Compound 30, [19CD]-isoGlu-ED()GTATK()ATERLA-Aad-FLQRSSF-Gly(Me)-A-Ile(Me)-PSSTEVGSNT-Hyp-NH2] ({C20 diacid-γGlu}-EDGTATKATERLA[Aad]FLQRSSF[Sar]A[NMeI]PSSTEVGSNT[Hyp]-NH2; lactam 2-7) | 0 | <20 | – | –
0.026 | 2.5 | 2.1 | 1.0 | FD | FND | FND | 0.007 | 1.6 | <1 | CC[C@H](C)[C@@H](C(=O)N[C@@H](CC(C)C)C(=O)N[C@@H](CO)C(=O)N[C@@H](CO)C(=O)N[C@H](C(=O)N[C@@H](CCC(=O)O)C(=O)N[C@H](C(=O)NCC(=O)N[C@@H](CO)C(=O)N[C@@H](CC(N)=O)C(=O)N[C@H](C(=O)N1C[C@H](O)C[C@H]1C(N)=O)[C@@H](C)O)[C@@H](C)O)[C@@H](C)O)N(C)C(=O)[C@H](C)NC(=O)CN(C)C(=O)[C@H](Cc1ccccc1)NC(=O)[C@H](CO)NC(=O)[C@H](CO)NC(=O)[C@H](CCCNC(=N)N)NC(=O)[C@H](CCC(N)=O)NC(=O)[C@H](CC(C)C)NC(=O)[C@H](Cc1ccccc1)NC(=O)[C@H](CCCC(=O)O)NC(=O)[C@H](C)NC(=O)[C@H](CC(C)C)NC(=O)[C@H](CCCNC(=N)N)NC(=O)[C@H](CCC(=O)O)NC(=O)[C@@H](NC(=O)[C@H](C)NC(=O)[C@@H]1CCCCNC(=O)C[C@H](NC(=O)[C@H](CCCNC(=N)N)NC(=O)CC[C@H](NC(=O)CCCCCCCCCCCCCCCCCCC(=O)O)C(=O)O)C(=O)NCC(=O)N[C@@H]([C@@H](C)O)C(=O)N[C@@H](C)C(=O)N[C@@H]([C@@H](C)O)C(=O)N1)[C@@H](C)O [Compound 36, [19CD]-isoGlu-RD()GTATK()ATERLA-Aad-FLQRSSF-Gly(Me)-A-Ile(Me)-LSSTETGSNT-Hyp-NH2] ({C20 diacid-γGlu}-RDGTATKATERLA[Aad]FLQRSSF[Sar]A[NMeI]LSSTETGSNT[Hyp]-NH2; lactam 2-7) | – | – | 5.2 | 44

Source: patent US11382956B2, “Amylin analogues” (Zealand Pharma A/S, priority 2016, dated 2022)
